Bridge positions count the residues as written; N and C are the ends. Ends that are not written are not given here. Peptide text beside a SMILES is read from it.
Experiments:
CGRP receptors = molecular target: T1, CGRP receptors (Homo sapiens, UniProt O60894+Q16602); experiment: CGRP radioligand binding assay (125I-hCGRP, SK-N-MC cell membranes); conditions: Table 6
T1 construct: membranes prepared from SK-N-MC cells, known to express CGRP receptors; endogenous in cells; host or cells: SK-N-MC cell membranes

calcitonin receptor = molecular target: T2, calcitonin receptor (Rattus norvegicus, UniProt P32214); experiment: calcitonin receptor binding assay (rCalcitonin RBA); conditions: Table 6; read-out: CT receptor binding
T2 sequence (P32214 25-516): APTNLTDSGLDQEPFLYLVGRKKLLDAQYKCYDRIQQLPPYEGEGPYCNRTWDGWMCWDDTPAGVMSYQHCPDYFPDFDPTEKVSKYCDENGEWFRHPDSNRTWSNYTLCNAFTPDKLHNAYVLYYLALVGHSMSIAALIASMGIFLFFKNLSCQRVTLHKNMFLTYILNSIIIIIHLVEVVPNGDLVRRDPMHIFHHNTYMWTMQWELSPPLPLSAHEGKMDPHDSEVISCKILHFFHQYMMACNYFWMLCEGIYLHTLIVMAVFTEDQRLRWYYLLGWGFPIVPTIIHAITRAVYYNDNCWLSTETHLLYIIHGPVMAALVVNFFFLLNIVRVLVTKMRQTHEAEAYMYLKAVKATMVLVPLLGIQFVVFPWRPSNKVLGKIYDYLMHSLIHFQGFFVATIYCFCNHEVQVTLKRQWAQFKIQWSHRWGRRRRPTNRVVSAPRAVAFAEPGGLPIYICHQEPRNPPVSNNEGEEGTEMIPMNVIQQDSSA

adrenomedullin receptor = adrenomedullin receptor (Homo sapiens, UniProt O60895+Q16602); experiment: adrenomedullin (ADM) receptor binding assay; conditions: Table 6
NIH/Swiss mice = experiment: acute food intake assay in overnight-fasted mice, IP injection; type: in vivo, mouse
Method: The effect of AFP-6 on food intake was investigated using an acute food intake assay. This assay measured food consumption in lean, group-housed, overnight-fasted NIH/Swiss mice. 12 mice were housed 3 to a cage. The sample compound, in this case AFP-6, was injected IP in mice and food intake was measured during the next 2-hours. Decreased, as well as increased, food intake can be measured. Testing various doses of the compound generated ED50's. The assay was performed as follows: 1. Remove food (water ad libitum) at 5:00 pm the evening before the study. 2. Weigh food pellets (3 pellets/cage). 3. Inject animals intraperitoneally with 200 ul of appropriate solution, t=0. 4. Immediately add pre-weighed food to each cage (away from water bottle spout) and allow animals to feed undisturbed. 5. At 30, 60, and 120 minutes, collect and weigh food. 6. Analyze data. Data points represent mean ±sd of n=12.
Twelve mice were injected IP at t=0 for each dose, 0.3, 1, 3, 10, 30, 100, or 300 nmol/kg of AFP-6 (Amylin Pharmaceuticals, Inc.) (n=12/group). Food was introduced immediately after injection and amount consumed measured at t=30, 60, and 120 min.

adrenomedullin receptor, sequence (Q16602 23-461): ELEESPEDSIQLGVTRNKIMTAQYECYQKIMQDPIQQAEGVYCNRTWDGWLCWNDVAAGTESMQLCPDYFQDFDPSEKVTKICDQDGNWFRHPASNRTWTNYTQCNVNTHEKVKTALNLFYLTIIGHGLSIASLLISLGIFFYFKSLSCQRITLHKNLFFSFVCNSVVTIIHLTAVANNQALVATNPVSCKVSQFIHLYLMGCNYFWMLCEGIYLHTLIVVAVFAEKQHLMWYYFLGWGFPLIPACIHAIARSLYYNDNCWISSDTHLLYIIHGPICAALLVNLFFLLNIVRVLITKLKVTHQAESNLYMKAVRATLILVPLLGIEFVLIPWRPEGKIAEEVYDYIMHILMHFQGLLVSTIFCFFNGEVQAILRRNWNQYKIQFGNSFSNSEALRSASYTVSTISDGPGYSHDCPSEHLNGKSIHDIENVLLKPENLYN
adrenomedullin receptor, sequence (O60895 43-175): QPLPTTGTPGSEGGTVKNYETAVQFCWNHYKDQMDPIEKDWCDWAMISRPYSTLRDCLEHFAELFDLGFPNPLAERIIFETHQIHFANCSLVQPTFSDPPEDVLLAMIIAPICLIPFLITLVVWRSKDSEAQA
T1 sequence (Q16602 23-461): as the sequence (Q16602 23-461) above
T1 sequence (O60894 27-148): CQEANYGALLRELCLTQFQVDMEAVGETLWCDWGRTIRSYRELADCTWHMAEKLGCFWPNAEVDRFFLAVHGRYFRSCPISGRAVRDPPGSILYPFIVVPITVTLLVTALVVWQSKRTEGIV

Row | Compound | IC50 (CGRP receptors) | IC50 (calcitonin receptor) | IC50 (adrenomedullin receptor) | inhibition of food intake (NIH/Swiss mice; 0.63 mg/kg, mice, not significant) | FI 30 min ED50 (NIH/Swiss mice; food intake, 30 min) | FI 60 min ED50 (NIH/Swiss mice; food intake, 60 min)
1 | CC(C)C[C@H](NC(=O)[C@H](CCC(N)=O)NC(=O)[C@H](Cc1c[nH]c2ccccc12)NC(=O)[C@H](CC(C)C)NC(=O)[C@H](CCCNC(=N)N)NC(=O)[C@H](Cc1c[nH]cn1)NC(=O)[C@H](CO)NC(=O)[C@H](CC(C)C)NC(=O)[C@H](CC(N)=O)NC(=O)[C@H](CCC(N)=O)NC(=O)[C@@H](NC(=O)[C@H](CCC(N)=O)NC(=O)[C@@H]1CSSC[C@H](NC(=O)[C@@H](N)C(C)C)C(=O)N[C@@H](CC(N)=O)C(=O)N[C@@H]([C@@H](C)O)C(=O)N[C@@H](C)C(=O)N[C@@H]([C@@H](C)O)C(=O)N1)C(C)C)C(=O)N[C@@H](CCCNC(=N)N)C(=O)N[C@@H](CCC(N)=O)C(=O)N[C@@H](CC(=O)O)C(=O)N[C@@H](CO)C(=O)N[C@@H](C)C(=O)N1CCC[C@H]1C(=O)N[C@H](C(=O)N[C@@H](CC(=O)O)C(=O)N1CCC[C@H]1C(=O)N[C@@H](CO)C(=O)N[C@@H](CO)C(=O)N1CCC[C@H]1C(=O)N[C@@H](Cc1c[nH]cn1)C(=O)N[C@@H](CO)C(=O)N[C@@H](Cc1ccc(O)cc1)C(N)=O)C(C)C [compound 30] (H-VCNTATCQVQNLSHRLWQLRQDSAPVDPSSPHSY-NH2; disulfide 2-7 (inferred)) | 37 nM | 128 nM | ≥ 1000 nM | – | – | –
2 | CC(C)C[C@@H]1NC(=O)[C@H](CC(N)=O)NC(=O)CNC(=O)[C@@H](NC(=O)CN)CSSC[C@@H](C(=O)N[C@@H](CCC(N)=O)C(=O)N[C@H](C(=O)N[C@@H](CCC(N)=O)C(=O)N[C@@H](CC(N)=O)C(=O)N[C@@H](CC(C)C)C(=O)N[C@@H](CO)C(=O)N[C@@H](Cc2c[nH]cn2)C(=O)N[C@@H](CCCNC(=N)N)C(=O)N[C@@H](CC(C)C)C(=O)N[C@@H](Cc2c[nH]c3ccccc23)C(=O)N[C@@H](CCC(N)=O)C(=O)N[C@@H](CC(C)C)C(=O)N[C@@H](CCCNC(=N)N)C(=O)N[C@@H](CCC(N)=O)C(=O)N[C@@H](CC(=O)O)C(=O)N[C@@H](CO)C(=O)N[C@@H](C)C(=O)N2CCC[C@H]2C(=O)N[C@H](C(=O)N[C@@H](CCC(=O)O)C(=O)N2CCC[C@H]2C(=O)N[C@@H](CO)C(=O)N[C@@H](CO)C(=O)N2CCC[C@H]2C(=O)N[C@@H](Cc2c[nH]cn2)C(=O)N[C@@H](CO)C(=O)N[C@@H](Cc2ccc(O)cc2)C(N)=O)C(C)C)C(C)C)NC(=O)[C@H]([C@@H](C)O)NC(=O)[C@H](CO)NC1=O [compound 39] (H-GCGNLSTCQVQNLSHRLWQLRQDSAPVEPSSPHSY-NH2; disulfide 2-8 (inferred); N-terminus assumed) | > 1000 nM | 31 nM | ≥ 1000 nM | – | – | –
3 | Rat calcitonin: rat calcitonin, reference peptide in the food intake assay (CGNLSTCMLGTYTQDLNKFHTFPQTSIGVGAP; ends and bridges not checked; cysteine pairing not given here; UniProt P01257 85-116, looked up) | – | – | – | 16% | – | –
4 | r/h Adrenomedullin: Amylin Family polypeptide of Table 3; r/h not resolved per value | – | – | – | – | 18 nmol/kg | 13 nmol/kg
